According to ChEMBL document CHEMBL3817795, “Identification and optimisation of a series of N-(4-anilino-2-pyridyl)acetamide activin receptor-like kinase 1 (ALK1) inhibitors” (Medchemcomm, 2016):

Tests used:
[1] = molecular target: SRSF protein kinase 1 (Homo sapiens) (UniProt Q96SB4); assay: Inhibition of human recombinant full-length SRPK1 expressed in Escherichia coli at 1 uM using RSRSRSRSRSRSRSR as substrate after 30 mins
[2] = molecular target: Maternal embryonic leucine zipper kinase (Homo sapiens) (UniProt Q14680); assay: Inhibition of human recombinant full-length MELK expressed in Escherichia coli at 1 uM using KKLNRTLSFAEPG as substrate after 30 mins
Chain of Maternal embryonic leucine zipper kinase (Homo sapiens) (Q14680 whole entry, looked up): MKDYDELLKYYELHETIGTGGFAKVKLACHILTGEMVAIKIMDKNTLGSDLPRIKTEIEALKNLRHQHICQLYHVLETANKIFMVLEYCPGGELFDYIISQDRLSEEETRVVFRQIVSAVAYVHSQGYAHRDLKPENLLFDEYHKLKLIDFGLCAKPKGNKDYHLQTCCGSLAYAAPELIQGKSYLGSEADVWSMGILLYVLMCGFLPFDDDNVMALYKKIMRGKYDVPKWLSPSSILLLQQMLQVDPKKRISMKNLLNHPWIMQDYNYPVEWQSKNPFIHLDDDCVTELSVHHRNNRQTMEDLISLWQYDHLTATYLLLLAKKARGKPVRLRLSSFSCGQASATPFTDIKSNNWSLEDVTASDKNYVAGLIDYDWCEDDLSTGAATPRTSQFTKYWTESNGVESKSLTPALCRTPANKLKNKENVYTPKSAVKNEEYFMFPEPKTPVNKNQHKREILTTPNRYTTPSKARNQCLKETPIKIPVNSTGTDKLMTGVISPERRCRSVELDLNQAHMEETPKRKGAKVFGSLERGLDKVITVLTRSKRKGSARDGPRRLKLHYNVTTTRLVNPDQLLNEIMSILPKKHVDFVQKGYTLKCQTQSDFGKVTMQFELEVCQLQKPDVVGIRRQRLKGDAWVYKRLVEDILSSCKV

[3] = molecular target: MAP kinase-interacting serine/threonine-protein kinase 1 (Homo sapiens) (UniProt Q9BUB5); assay: Inhibition of human recombinant full-length MNK1 expressed in Escherichia coli at 1 uM using eIF4E as substrate after 30 mins
[4] = molecular target: Inhibitor of nuclear factor kappa-B kinase subunit beta (Homo sapiens) (UniProt O14920); assay: Inhibition of human recombinant full-length IKKbeta expressed in insect Sf21 cells at 1 uM using LDDRHDSGLDSMKDEEY as substrate after 30 mins
[5] = molecular target: Bone morphogenetic protein receptor type-1A (Homo sapiens, UniProt P36894); assay: Inhibition of human recombinant N-terminal GST-tagged ALK3 (187 to 432 residues) expressed in insect cells by FRET assay
Chain of Bone morphogenetic protein receptor type-1A (P36894 whole entry, the tested form may be a part): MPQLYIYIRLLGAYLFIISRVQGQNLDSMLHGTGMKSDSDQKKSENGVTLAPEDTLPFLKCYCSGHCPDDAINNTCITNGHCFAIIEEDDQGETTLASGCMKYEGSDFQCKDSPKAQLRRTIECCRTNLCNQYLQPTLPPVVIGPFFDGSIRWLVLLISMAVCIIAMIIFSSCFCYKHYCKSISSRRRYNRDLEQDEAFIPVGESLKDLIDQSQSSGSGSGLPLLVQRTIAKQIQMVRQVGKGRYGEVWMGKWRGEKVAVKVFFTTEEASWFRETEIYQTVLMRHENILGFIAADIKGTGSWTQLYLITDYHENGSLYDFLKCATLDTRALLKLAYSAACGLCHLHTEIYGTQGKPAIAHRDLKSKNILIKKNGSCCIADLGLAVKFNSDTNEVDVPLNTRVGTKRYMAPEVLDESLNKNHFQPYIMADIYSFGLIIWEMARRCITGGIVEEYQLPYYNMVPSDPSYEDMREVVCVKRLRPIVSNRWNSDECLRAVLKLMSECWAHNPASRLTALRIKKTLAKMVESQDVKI

[6] = molecular target: Serine/threonine-protein kinase PAK 4 (Homo sapiens) (UniProt O96013); assay: Inhibition of human recombinant full-length PAK4 expressed in Escherichia coli at 1 uM using RRRLSFAEPG as substrate after 30 mins
[7] = molecular target: Bone morphogenetic protein receptor type-1B (Homo sapiens, UniProt O00238); assay: Inhibition of human recombinant N-terminal GST-tagged ALK6 (149 amino acids end) expressed in baculovirus infected Sf9 insect cells by FRET assay
[8] = Ratio of free drug level in nude mouse at 5 umol/kg administered as single dose after 24 hrs to IC50 for ALK1 in HMEC-1; format: ADME; settings: in vivo
[9] = molecular target: Ribosomal protein S6 kinase beta-1 (Homo sapiens) (UniProt P23443); assay: Inhibition of P70S6K (unknown origin) at 1 uM
Chain of Ribosomal protein S6 kinase beta-1 (Homo sapiens) (P23443 whole entry, looked up): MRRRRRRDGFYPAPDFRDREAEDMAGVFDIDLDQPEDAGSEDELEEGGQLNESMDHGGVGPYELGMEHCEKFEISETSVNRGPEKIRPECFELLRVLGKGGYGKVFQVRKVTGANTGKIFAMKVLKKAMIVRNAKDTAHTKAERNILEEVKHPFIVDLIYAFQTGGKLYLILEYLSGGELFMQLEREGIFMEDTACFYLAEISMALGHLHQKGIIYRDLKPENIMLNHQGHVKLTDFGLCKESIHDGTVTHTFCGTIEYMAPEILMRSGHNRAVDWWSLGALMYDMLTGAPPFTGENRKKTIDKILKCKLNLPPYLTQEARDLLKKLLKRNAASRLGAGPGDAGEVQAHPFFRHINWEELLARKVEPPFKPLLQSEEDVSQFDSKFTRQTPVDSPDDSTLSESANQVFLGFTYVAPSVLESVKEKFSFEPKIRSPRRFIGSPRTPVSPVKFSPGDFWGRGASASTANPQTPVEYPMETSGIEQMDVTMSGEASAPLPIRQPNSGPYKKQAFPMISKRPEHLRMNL

[10] = molecular target: Tyrosine-protein kinase BTK (Homo sapiens) (UniProt Q06187); assay: Inhibition of BTK (unknown origin) at 1 uM
[11] = molecular target: Tyrosine-protein kinase CSK (Homo sapiens) (UniProt P41240); assay: Inhibition of human recombinant full-length CSK at 1 uM after 30 mins
Chain of Tyrosine-protein kinase CSK (Homo sapiens) (P41240 2-450 limits assumed): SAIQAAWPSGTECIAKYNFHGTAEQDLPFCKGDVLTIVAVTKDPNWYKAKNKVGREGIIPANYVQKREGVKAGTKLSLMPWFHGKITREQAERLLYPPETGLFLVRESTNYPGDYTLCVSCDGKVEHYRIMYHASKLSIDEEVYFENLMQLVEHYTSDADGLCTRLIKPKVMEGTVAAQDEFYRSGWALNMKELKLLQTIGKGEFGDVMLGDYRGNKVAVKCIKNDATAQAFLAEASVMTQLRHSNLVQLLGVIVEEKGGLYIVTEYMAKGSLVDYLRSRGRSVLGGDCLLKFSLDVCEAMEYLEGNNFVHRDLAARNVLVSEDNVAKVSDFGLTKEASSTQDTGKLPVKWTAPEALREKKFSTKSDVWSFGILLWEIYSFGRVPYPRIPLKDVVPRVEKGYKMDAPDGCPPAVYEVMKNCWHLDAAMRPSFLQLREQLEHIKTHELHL

[12] = Lipophilicity, log D of the compound at pH 7.4; format: physicochemical; settings: buffer
Activin receptor type-1 = Activin receptor type-1 (Homo sapiens, UniProt Q04771); assay: Inhibition of human recombinant GST-tagged ALK2 (amino acid 147 end) by FRET assay
[13] = molecular target: MAP/microtubule affinity-regulating kinase 3 (Homo sapiens) (UniProt P27448); assay: Inhibition of human recombinant full-length MARK3 expressed in insect Sf21 cells at 1 uM using KKKVSRSGLYRSPSMPENLNRPR as substrate after 30 mins
[14] = molecular target: MAP kinase-activated protein kinase 2 (Homo sapiens) (UniProt P49137); assay: Inhibition of human recombinant […] MAPKAPK2 (46 to 400 residues) expressed in Escherichia coli at 1 uM after 30 mins
Chain of MAP kinase-activated protein kinase 2 (Homo sapiens) (P49137 whole entry, looked up, the tested form may be a part): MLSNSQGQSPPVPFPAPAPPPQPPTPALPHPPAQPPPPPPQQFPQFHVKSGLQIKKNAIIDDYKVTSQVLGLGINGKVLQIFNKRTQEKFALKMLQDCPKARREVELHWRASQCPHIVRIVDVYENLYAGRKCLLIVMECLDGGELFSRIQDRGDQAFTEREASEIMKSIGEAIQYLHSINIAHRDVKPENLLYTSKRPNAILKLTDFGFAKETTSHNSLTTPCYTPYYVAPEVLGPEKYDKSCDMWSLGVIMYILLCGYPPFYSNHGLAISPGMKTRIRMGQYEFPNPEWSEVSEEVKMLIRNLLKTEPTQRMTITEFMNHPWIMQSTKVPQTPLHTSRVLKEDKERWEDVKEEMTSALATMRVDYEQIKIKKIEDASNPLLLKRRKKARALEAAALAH

Mus musculus = assay: Free Cmax in nude mouse at 50 mg/kg, po administered as single dose after 24 hrs; format: ADME, organism-based; settings: in vivo
[15] = molecular target: Proto-oncogene tyrosine-protein kinase Src (Homo sapiens) (UniProt P12931); assay: Inhibition of human recombinant full-length Src expressed in insect Sf21 cells at 1 uM using KVEKIGEGTYGVVYK as substrate after 30 mins
[16] = molecular target: Fibroblast growth factor receptor 1 (Homo sapiens) (UniProt P11362); assay: Inhibition of human recombinant FGFR1 (400 to 820 residues) expressed in insect Sf21 cells at 1 uM using poly(Glu4-Tyr1) as substrate after 30 mins
[17] = molecular target: MAP kinase-activated protein kinase 5 (Homo sapiens) (UniProt Q8IW41); assay: Inhibition of MAPKAPK5 (unknown origin) at 1 uM
Chain of MAP kinase-activated protein kinase 5 (Homo sapiens) (Q8IW41 whole entry, the tested form may be a part): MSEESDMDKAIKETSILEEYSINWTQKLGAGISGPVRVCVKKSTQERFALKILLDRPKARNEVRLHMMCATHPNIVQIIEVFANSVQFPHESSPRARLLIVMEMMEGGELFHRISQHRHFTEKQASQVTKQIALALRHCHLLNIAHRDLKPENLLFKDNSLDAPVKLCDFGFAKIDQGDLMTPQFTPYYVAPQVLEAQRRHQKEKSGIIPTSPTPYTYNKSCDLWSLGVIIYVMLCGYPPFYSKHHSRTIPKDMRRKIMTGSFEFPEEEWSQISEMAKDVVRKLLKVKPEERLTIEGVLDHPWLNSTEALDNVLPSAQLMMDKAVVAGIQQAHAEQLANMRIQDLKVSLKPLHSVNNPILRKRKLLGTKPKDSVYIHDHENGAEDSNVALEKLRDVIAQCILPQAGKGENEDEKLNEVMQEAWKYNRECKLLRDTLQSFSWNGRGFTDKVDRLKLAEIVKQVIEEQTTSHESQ

[18] = molecular target: Serine/threonine-protein kinase Chk2 (Homo sapiens) (UniProt O96017); assay: Inhibition of human recombinant CHK2 (5 to 543 residues) expressed in Escherichia coli at 1 uM after 30 mins
Chain of Serine/threonine-protein kinase Chk2 (Homo sapiens) (O96017 whole entry, the tested form may be a part): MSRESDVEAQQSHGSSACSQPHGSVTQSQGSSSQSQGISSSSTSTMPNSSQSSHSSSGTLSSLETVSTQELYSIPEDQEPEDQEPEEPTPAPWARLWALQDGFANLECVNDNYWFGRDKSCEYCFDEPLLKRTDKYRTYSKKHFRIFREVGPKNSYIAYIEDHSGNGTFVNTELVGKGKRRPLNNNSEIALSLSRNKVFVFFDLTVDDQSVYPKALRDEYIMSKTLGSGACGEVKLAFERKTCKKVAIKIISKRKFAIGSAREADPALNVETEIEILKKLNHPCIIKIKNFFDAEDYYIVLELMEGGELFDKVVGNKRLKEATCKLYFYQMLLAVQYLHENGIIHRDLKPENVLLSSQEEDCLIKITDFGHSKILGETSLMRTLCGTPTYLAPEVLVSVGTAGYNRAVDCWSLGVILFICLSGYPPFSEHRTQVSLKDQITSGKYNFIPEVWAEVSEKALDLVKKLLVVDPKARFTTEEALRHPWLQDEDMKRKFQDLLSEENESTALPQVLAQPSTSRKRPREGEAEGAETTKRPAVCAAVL

[19] = molecular target: TGF-beta receptor type-1 (Homo sapiens) (UniProt P36897); assay: Inhibition of ALK5 in recombinant human MDA-MB-468 cells assessed as translocation of GFP-smad2; format: cell-based
Chain of TGF-beta receptor type-1 (Homo sapiens) (P36897 whole entry): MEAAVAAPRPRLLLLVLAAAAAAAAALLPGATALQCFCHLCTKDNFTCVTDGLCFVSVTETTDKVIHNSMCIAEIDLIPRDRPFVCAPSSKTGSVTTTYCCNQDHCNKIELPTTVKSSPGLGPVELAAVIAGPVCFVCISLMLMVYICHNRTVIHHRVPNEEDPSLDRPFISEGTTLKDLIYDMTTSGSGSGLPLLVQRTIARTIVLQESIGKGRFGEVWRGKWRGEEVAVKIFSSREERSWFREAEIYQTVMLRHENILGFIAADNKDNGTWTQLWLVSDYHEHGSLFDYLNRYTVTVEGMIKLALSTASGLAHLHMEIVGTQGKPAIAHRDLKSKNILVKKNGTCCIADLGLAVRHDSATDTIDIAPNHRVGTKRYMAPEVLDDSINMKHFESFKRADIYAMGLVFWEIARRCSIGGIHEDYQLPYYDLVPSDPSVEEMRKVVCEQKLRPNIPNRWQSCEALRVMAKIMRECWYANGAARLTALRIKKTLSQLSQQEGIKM

[20] = molecular target: Calcium/calmodulin-dependent protein kinase type 1D (Homo sapiens) (UniProt Q8IU85); assay: Inhibition of CAMK1d (unknown origin) at 1 uM
Chain of Calcium/calmodulin-dependent protein kinase type 1D (Homo sapiens) (Q8IU85 whole entry, looked up): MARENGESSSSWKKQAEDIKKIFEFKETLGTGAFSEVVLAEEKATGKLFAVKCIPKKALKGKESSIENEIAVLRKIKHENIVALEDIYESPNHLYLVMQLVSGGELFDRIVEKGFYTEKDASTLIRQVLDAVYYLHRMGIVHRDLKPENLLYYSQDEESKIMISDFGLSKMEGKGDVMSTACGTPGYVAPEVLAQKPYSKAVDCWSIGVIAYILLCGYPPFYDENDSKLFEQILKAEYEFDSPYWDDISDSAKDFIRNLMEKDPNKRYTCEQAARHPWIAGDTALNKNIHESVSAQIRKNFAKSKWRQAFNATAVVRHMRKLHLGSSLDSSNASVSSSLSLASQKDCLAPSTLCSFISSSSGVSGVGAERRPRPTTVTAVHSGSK

[21] = molecular target: Insulin receptor (Homo sapiens) (UniProt P06213); assay: Inhibition of INSR (unknown origin) at 1 uM
[22] = Fraction unbound in mouse plasma; format: ADME, cell-free
[23] = molecular target: Serine/threonine-protein kinase Nek6 (Homo sapiens) (UniProt Q9HC98); assay: Inhibition of human recombinant NEK6 (8 to 313 residues) expressed in insect Sf21 cells at 1 uM using FLAKSFGSPNRAYKK as substrate after 30 mins
[24] = molecular target: Mitogen-activated protein kinase 13 (Homo sapiens) (UniProt O15264); assay: Inhibition of MAPK13 (unknown origin) at 1 uM
[25] = molecular target: Ribosomal protein S6 kinase alpha-5 (Homo sapiens) (UniProt O75582); assay: Inhibition of human recombinant full-length MSK1 at 1 uM after 30 mins
[26] = molecular target: Mitogen-activated protein kinase 9 (Homo sapiens) (UniProt P45984); assay: Inhibition of MAPK9 (unknown origin) at 1 uM
[27] = molecular target: Mitogen-activated protein kinase 14 (Homo sapiens) (UniProt Q16539); assay: Inhibition of human recombinant full-length p38alpha at 1 uM after 30 mins
[28] = molecular target: T1, Activin receptor type-1-like (Homo sapiens, UniProt P37023); assay: Inhibition of ALK1 (unknown origin)
T1 sequence (P37023 whole entry): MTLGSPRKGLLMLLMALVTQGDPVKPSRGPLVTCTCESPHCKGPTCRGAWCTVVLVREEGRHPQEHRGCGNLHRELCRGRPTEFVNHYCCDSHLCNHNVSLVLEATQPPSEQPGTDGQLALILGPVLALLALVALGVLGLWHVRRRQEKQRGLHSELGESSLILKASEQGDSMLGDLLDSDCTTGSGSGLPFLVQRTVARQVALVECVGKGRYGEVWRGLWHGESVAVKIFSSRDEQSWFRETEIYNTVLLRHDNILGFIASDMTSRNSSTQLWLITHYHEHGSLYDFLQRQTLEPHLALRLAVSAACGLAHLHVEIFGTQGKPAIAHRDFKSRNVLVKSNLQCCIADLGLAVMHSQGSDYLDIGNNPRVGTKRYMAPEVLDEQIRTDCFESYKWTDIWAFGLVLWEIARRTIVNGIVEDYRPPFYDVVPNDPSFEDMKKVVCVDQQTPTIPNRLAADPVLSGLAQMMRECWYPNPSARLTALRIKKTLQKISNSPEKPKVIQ

[29] = molecular target: Casein kinase II (Homo sapiens) (UniProt P67870+P68400+P19784); assay: Inhibition of human recombinant full-length CK2 at 1 uM after 30 mins; format: protein-complex assay
[30] = molecular target: Mitogen-activated protein kinase 11 (Homo sapiens) (UniProt Q15759); assay: Inhibition of human recombinant full-length p38beta at 1 uM after 30 mins
[31] = molecular target: Protein kinase C zeta type (Homo sapiens) (UniProt Q05513); assay: Inhibition of PKCz (unknown origin) at 1 uM
[32] = molecular target: T1, Activin receptor type-1-like; assay: Inhibition of human recombinant GST-tagged ALK1 expressed in baculovirus by FRET assay
[33] = molecular target: Insulin-like growth factor 1 receptor (Homo sapiens) (UniProt P08069); assay: Inhibition of IGF1R (unknown origin) at 1 uM
[34] = molecular target: Myosin light chain kinase, smooth muscle (Homo sapiens) (UniProt Q15746); assay: Inhibition of human recombinant smMLCK (475 to 838 residues) expressed in Escherichia coli at 1 uM using KKRPQRATSNVFA as substrate after 30 mins

- inhibition [1]: < 80%
- inhibition [2]: < 80%
- inhibition [3]: < 80%
- inhibition [4]: < 80%
- IC50 [5]: 2.4 nM
- inhibition [6]: < 80%
- IC50 [7]: 1300 nM
- Ratio [8]: > 10
- inhibition [9]: < 80%
- inhibition [10]: < 80%
- inhibition [11]: < 80%
- logD [12]: 2.7
- IC50 (Activin receptor type-1): 1.2 nM
- inhibition [13]: < 80%
- inhibition [14]: < 80%
- fCmax (Mus musculus): 31.7 µM
- inhibition [15]: < 80%
- inhibition [16]: < 80%
- inhibition [17]: < 80%
- inhibition [18]: < 80%
- INH [19]: 0.12 µM
- inhibition [20]: < 80%
- inhibition [21]: < 80%
- fraction unbound [22]: 0.27
- inhibition [23]: < 80%
- inhibition [24]: < 80%
- inhibition [25]: < 80%
- inhibition [26]: < 80%
- inhibition [27]: < 80%
- IC50 [28]: 4 nM
- inhibition [29]: < 80%
- inhibition [30]: < 80%
- inhibition [31]: < 80%
- IC50 [32]: 1.1 nM
- inhibition [33]: < 80%
- inhibition [34]: < 80%
SMILES: O=C(Nc1cc(Nc2c(Cl)cnc3c2OCO3)ccn1)C1CC1
